Data as given in patent US7105512B2, “Ophthalmic aqueous pharmaceutical preparation” (Wakamoto Pharmaceutical Co., Ltd., priority 1999, dated 2006).
Where “and” joins values, the source holds several entries; their conditions need not be identical. Equal entries are not always repeated. Structures can show the parent of a compound that is named as a salt.

Tests used:
[1] = Comparison of solubility in water of meloxicam salts by UV analysis
[2] = Solubility of meloxicam in water near the neutral pH region; format: physicochemical; conditions: at 25° C.
[3] = pH of the aqueous solution at the concentration of the same line, below saturation
[4] = pH of the saturated aqueous solution (SAS)

Row | Compound | pH [1, 3] | pH [1, 4] | solubility of meloxicam in water, saturated concentration [2]
1 | Cc1cnc(NC(=O)C2=C(O)c3ccccc3S(=O)(=O)N2C)s1 [Trometamol Salt, trometamol salt of meloxicam] | 7.52 and 7.71 | 7.93 | –
2 | CNC[C@H](O)[C@@H](O)[C@H](O)[C@H](O)CO.Cc1cnc(NC(=O)C2=C(O)c3ccccc3S(=O)(=O)N2C)s1 [Meglumine Salt, meglumine salt of meloxicam] | 8.57 and 8.64 and 8.73 | 9.02 | –
3 | Cc1cnc(NC(=O)C2=C(O)c3ccccc3S(=O)(=O)N2C)s1 [meloxicam] | – | – | about 0.2 mg/100 mL
4 | Cc1cnc(NC(=O)C2=C([O-])c3ccccc3S(=O)(=O)N2C)s1.[Na+] [Sodium Salt, Sodium salt of meloxicam] | – | 8.06 | –
